Results published in ChEMBL document CHEMBL1201862, “PubChem BioAssay data set” (2004).
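These data come from cells grown in 96-well plates and exposed to compound for 48 hours at five concentrations. Abbreviation: GI50, concentration required for 50% inhibition of growth.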 The source made the active and inactive calls. Rule as the data show it: active = GI50 up to about 1.1 µM and inactive = higher.

Experiments:
Test in all cases: NCI-60 cell line screen, 48 h
[1] = test system: NCI-H226
[2] = test system: SN12C
[3] = test system: NCI/ADR-RES
[4] = test system: PC-3
[5] = test system: CAKI-1
[6] = test system: RXF 393
[7] = test system: UACC-62
[8] = test system: Hs-578T
[9] = test system: UACC-257
[10] = test system: 786-0
[11] = test system: NCI-H23
[12] = test system: COLO 205
[13] = test system: DU-145
[14] = test system: SF-295
[15] = test system: HCT-15
[16] = test system: MDA-MB-231
[17] = test system: T47D
[18] = test system: Malme-3M
[19] = test system: OVCAR-5
[20] = test system: HOP-92
[21] = test system: SK-MEL-28
[22] = test system: HCT-116
[23] = test system: HOP-62
[24] = test system: ACHN
[25] = test system: HL-60
[26] = test system: EKVX
[27] = test system: RPMI-8226
[28] = test system: A498
[29] = test system: MDA-MB-435
[30] = test system: SK-MEL-5
[31] = test system: MCF7
[32] = test system: NCI-H460
[33] = test system: K562
[34] = test system: UO-31
[35] = test system: IGROV-1
[36] = test system: CCRF-CEM
[37] = test system: LOX IMVI
[38] = test system: TK-10
[39] = test system: U-251
[40] = test system: OVCAR-4
[41] = test system: MOLT-4
[42] = test system: SW-620
[43] = test system: OVCAR-8
[44] = test system: SNB-19
[45] = test system: HT-29
[46] = test system: SK-OV-3
[47] = test system: SF-539
[48] = test system: A549
[49] = test system: BT-549
[50] = test system: KM12
[51] = test system: MDA-N
[52] = test system: SF-268
[53] = test system: OVCAR-3
[54] = test system: M14
[55] = test system: SK-MEL-2
[56] = test system: NCI-H522
[57] = test system: SNB-75
[58] = test system: HCC 2998

Measured: GI50

N=C(CC(=O)NOC(=O)c1ccccc1)NOC(=O)c1ccccc1
38.5 µM: [15]
inactive: [1] 12.8 µM | [2] 29.4 µM | [3] 25.5 µM | [4] > 100 µM | [5] 36.9 µM | [6] 10.8 µM | [7] 25.9 µM | [8] 36.2 µM | [9] > 100 µM | [10] > 100 µM | [11] 69.7 µM | [12] 26.6 µM | [13] > 100 µM | [14] 18.4 µM | [16] > 100 µM | [17] > 100 µM | [18] > 100 µM | [19] 59.6 µM | [20] 39.4 µM | [21] 27.5 µM | [22] 38.6 µM | [23] 44.8 µM | [24] 29.6 µM | [25] 78.3 µM | [26] 30.9 µM | [27] 74.6 µM | [28] 31.4 µM | [29] 36.3 µM | [30] 36.2 µM | [31] 25.8 µM | [32] 31.1 µM | [33] 28.5 µM | [34] 19.1 µM | [35] 14.7 µM | [36] 38 µM | [37] 17.7 µM | [38] 52 µM | [39] 34.1 µM | [40] 18.3 µM | [41] 28.5 µM | [42] 50.8 µM | [43] 27.9 µM | [44] 71.6 µM | [45] > 100 µM | [46] 28.7 µM | [47] 22.1 µM | [48] 32.4 µM | [49] 25.2 µM | [50] 46 µM | [51] 33.6 µM | [52] 23.2 µM | [53] 96.8 µM | [54] > 100 µM

CC1CC2(OC2C)C(=O)OC2CCN(C)C/C=C(/COC(=O)C1(C)O)C2=O (stereo not given)
> 100 µM: [15]
inactive: [2] > 100 µM | [3] > 100 µM | [4] > 100 µM | [5] > 100 µM | [6] > 100 µM | [7] > 100 µM | [8] > 100 µM | [9] > 100 µM | [55] > 100 µM | [10] > 100 µM | [11] > 100 µM | [12] > 100 µM | [13] > 100 µM | [14] > 100 µM | [16] > 100 µM | [17] > 100 µM | [18] > 100 µM | [19] > 100 µM | [20] > 100 µM | [56] > 100 µM | [21] > 100 µM | [22] > 100 µM | [23] > 100 µM | [24] > 100 µM | [25] > 100 µM | [26] > 100 µM | [27] > 100 µM | [28] > 100 µM | [29] > 100 µM | [30] > 100 µM | [31] > 100 µM | [32] > 100 µM | [57] > 100 µM | [33] > 100 µM | [34] > 100 µM | [35] > 100 µM | [36] > 100 µM | [58] > 100 µM | [37] > 100 µM | [38] > 100 µM | [39] > 100 µM | [40] > 100 µM | [41] > 10 µM | [42] > 100 µM | [43] > 100 µM | [44] > 100 µM | [45] > 100 µM | [46] > 100 µM | [47] > 100 µM | [48] > 100 µM | [49] > 100 µM | [50] > 100 µM | [51] > 100 µM | [52] > 100 µM | [53] > 100 µM | [54] > 100 µM

NS(=O)(=O)c1cc2c(cc1Cl)N=C(CCC(=O)O)NS2(=O)=O
> 100 µM: [15]
inactive: [1] > 100 µM | [2] > 100 µM | [3] > 100 µM | [4] > 100 µM | [5] > 100 µM | [6] > 100 µM | [7] > 100 µM | [8] > 100 µM | [9] > 100 µM | [55] > 100 µM | [10] > 100 µM | [11] > 100 µM | [12] > 100 µM | [13] > 100 µM | [14] > 100 µM | [16] > 100 µM | [17] > 100 µM | [18] > 100 µM | [19] > 100 µM | [20] > 100 µM | [56] > 100 µM | [21] > 100 µM | [22] > 100 µM | [23] > 100 µM | [24] > 100 µM | [26] > 100 µM | [27] > 100 µM | [28] > 100 µM | [29] > 100 µM | [30] > 100 µM | [31] > 100 µM | [32] > 100 µM | [57] > 100 µM | [33] > 100 µM | [34] > 100 µM | [35] > 100 µM | [37] > 100 µM | [38] > 100 µM | [39] > 100 µM | [40] > 100 µM | [42] > 100 µM | [43] > 100 µM | [44] > 100 µM | [45] > 100 µM | [46] > 100 µM | [47] > 100 µM | [48] > 100 µM | [49] > 100 µM | [50] > 100 µM | [51] > 100 µM | [52] > 100 µM | [53] > 100 µM | [54] > 100 µM
